# Experimental data published in patent US6756362B2, “Methods and compositions based on inhibition of cell invasion and fibrosis by anionic polymers” (priority 1991, dated 2004).
# Assays:
# rat astrocytes (RAST) = assay: Stripe assay, RAST; assay type: cell-based; set-up: key: Bands that were completely inhibitory to cell adhesion, migration and/or invasion were evaluated as (−); those allowing limited cell adhesion, migration and/or invasion (+/−); those permissive to cell adhesion, migration and/or invasion as (+); conditions: for DS-PG Effect on Adhesion, Migration and Invasion: 2 days following plating
# Method: Rat astrocytes (RAST) cultures were prepared from P-1-3 rat brain cortices. The cortices were stripped of connective tissue and blood vessels, cut into small pieces and dissociated in 0.5% collagenase (Gibco Laboratories) for 20 min at 37° C., followed by further dissociation in 0.25% trypsin for 15 min, and 0.04 mg/ml DNAse (Sigma) and 0.52 mg/ml soy bean trypsin inhibitor for 5 min at 37° C. The cells were subsequently mechanically dissociated by trituration with a Pastuer pipette and plated at 1.5×10^7 cells in a poly-L-lysine (PLL, Sigma) coated 75 cm^2 flask. The flask was shaken 4 hrs following plating to remove less adherent non-astrocytic oligodendrocytes and neurons.
# (§1) The stripe assay was performed essentially as described by Snow et al. (1990, Exp. Neural. 309:111-130). Tissue culture Petri dishes (Falcon, 60 mm) were precoated with 0.5 ml of a mixture of 5 cm^2 section nitrocellulose (Schleicher & Schuell, Type BA 85) dissolved in 6 ml methanol, and air dried in a laminar flow hood. Cellulose filter paper (Whatman #1) was cut into 12×0.35 mm strips with a McIlwain tissue chopper (The Mickle Laboratory Engineering Co., LTD). A strip of filter paper was soaked in 20 μl of a solution of DS-PG or KS/CS-PG and LN at given concentration, blotted onto the nitrocellulose-coated dish for 30 sec. and removed. The test solution was allowed to air dry. This process was repeated several times creating clearly defined, equally spaced parallel bands of uniform width on the plates. A thin layer of 0.1 or 1 mg/ml LN was then spread evenly across the bands with a bent glass Pasteur pipet, and covered with culture medium (FIG. 1).
# (§2) Plates were seeded with cell suspensions of 2.0×10^5 cells/ml or 4-10 DRG explants. The cultures were assessed for degree of adhesion, migration and/or invasion of the DS-PG or KS/CS-PG bands over a period of up to 7 days using a Leitz Fluovert microscope.
# (§3) Bands that were completely inhibitory to cell adhesion, migration and/or invasion were evaluated as (−), those allowing limited cell adhesion, migration and/or invasion (+/−), and those permissive to cell adhesion, migration and/or invasion as (+). cell adhesion was defined as the initial interaction between the cell surface and the substratum which results in cell attachment and spreading. Cell migration was operationally defined as cell movement within the same substratum, and cell invasion was operationally defined as cell movement from one type of substratum to another type of substratum.
# [1] = tested on: MCG-28 young immortalized mouse astrocyte; assay: Stripe assay, MCG-28; assay type: cell-based; set-up: key: Bands that were completely inhibitory to cell adhesion, migration and/or invasion were evaluated as (−); those allowing limited cell adhesion, migration and/or invasion (+/−); those permissive to cell adhesion, migration and/or invasion as (+); conditions: MCG28; for DS-PG Effect on Adhesion, Migration and Invasion: 2 days following plating
# Method: (§4) Cell lines. Murine 3T3 fibroblast (NIH), rat C6 glioma (Paganetti et al., 1988, J. Cell Biol. 107:2281) and MCG-28 young immortalized mouse astrocyte (a murine neonatal astrocyte line immortalized with SV-40) were grown in medium composed of Dulbecco's modified Eagle medium (DMEM), 10% fetal calf serum (Gibco Laboratories), and penicillin G/streptomycin (100 units/ml, 100 μg/ml respectively, Gibco Laboratories). For the stripe assay, confluent plates were disaggregated with 0.05% trypsin, 0.53 mM EDTA (Gibco Laboratories) and seeded at 200,000 cells/ml (3 ml/plate). For the cell adhesion assays, confluent cultures were disaggregated with 0.03% EDTA and plated in a 96-well microtiter plate at 20,000-100,000 cells per well. PC12 cells, a pheochromocytoma cell line (Green L. A. & Tischler A. S., 1976, Proc. Natl. Acad. Sci. U.S.A. 73:2424), were grown in medium containing Roswell Park Memorial Institute (RPMI) medium 1640 (Gibco Laboratories), 10% horse serum, 5% fetal calf serum (FCS), and penicillin G/streptomycin (100 units/ml, 100 μg/ml respectively, Gibco Laboratories). The cells were disaggregated with 0.03% EDTA and plated in a 96-well microtiter plate at 3,000 cells per well.
# as §1, §2, §3
# rat C6 glioma = assay: Stripe assay, C6; assay type: cell-based; set-up: key to DS-PG Effect on Adhesion, Migration and Invasion / Effect of KS/CS-PG on Cell Migration: Bands that were completely inhibitory to cell adhesion, migration and/or invasion were evaluated as (−); those allowing limited cell adhesion, migration and/or invasion (+/−); those permissive to cell adhesion, migration and/or invasion as (+); conditions: for DS-PG Effect on Adhesion, Migration and Invasion / Effect of KS/CS-PG on Cell Migration: C6; for DS-PG Effect on Adhesion, Migration and Invasion: 2 days following plating
# Method: as §4, §1, §2, §3
# [2] = tested on: dorsal root ganglia (DRG) explants; assay: Stripe assay, DRG explants; assay type: cell-based, chick; set-up: key: Bands that were completely inhibitory to cell adhesion, migration and/or invasion were evaluated as (−); those allowing limited cell adhesion, migration and/or invasion (+/−); those permissive to cell adhesion, migration and/or invasion as (+); conditions: for DS-PG Effect on Adhesion, Migration and Invasion: 2 days following plating
# Method: Primary Explant Cultures. Dorsal root ganglia (DRGs) were obtained from E8-E9 chick embryos. The dissection was carried out in CMF-HBSS. The spinal cord was exposed and DRGs were removed and cleaned from surrounding connective tissue. DRGs were plated in DMEM/F12, 10% fetal calf serum containing 50 ng/ml nerve growth factor (NGF). The DRGs were seeded on laminin (LN, Gibco Laboratories) or poly-L-lysine (PLL, Sigma) coated dishes.
# as §1, §2, §3
# Murine 3T3 fibroblast = assay: Stripe assay, 3T3; assay type: cell-based, mouse; set-up: key: Bands that were completely inhibitory to cell adhesion, migration and/or invasion were evaluated as (−); those allowing limited cell adhesion, migration and/or invasion (+/−); those permissive to cell adhesion, migration and/or invasion as (+); conditions: for DS-PG Effect on Adhesion, Migration and Invasion / Effect of KS/CS-PG on Cell Migration: 3T3; for DS-PG Effect on Adhesion, Migration and Invasion: 2 days following plating
# Method: as §4, §1, §2, §3
# [3] = 0.1 mg/ml DS-PG + 20 μg/ml LN stripes
# [4] = 0.2 mg/ml DS-PG + 20 μg/ml LN stripes
# [5] = 0.4 mg/ml DS-PG + 20 μg/ml LN stripes
# [6] = 0.8 mg/ml DS-PG + 20 μg/ml LN stripes
# [7] = 0.25 mg/ml KS/CS-PG + LN stripes
# [8] = 0.5 mg/ml KS/CS-PG + LN stripes
# [9] = 1.0 mg/ml KS/CS-PG + LN stripes
# [10] = 2.7 mg/ml KS/CS-PG + LN stripes
substance,measurement,setting,value
Dermatan sulfate proteoglycan [DS-PG],"DS-PG Effect on Adhesion, Migration and Invasion",rat astrocytes (RAST); [3],+
same,"DS-PG Effect on Adhesion, Migration and Invasion",rat astrocytes (RAST); [4],+/−
same,"DS-PG Effect on Adhesion, Migration and Invasion",rat astrocytes (RAST); [5],+/−
same,"DS-PG Effect on Adhesion, Migration and Invasion",rat astrocytes (RAST); [6],−
same,"DS-PG Effect on Adhesion, Migration and Invasion",[1]; [3],+
same,"DS-PG Effect on Adhesion, Migration and Invasion",[1]; [4],+
same,"DS-PG Effect on Adhesion, Migration and Invasion",[1]; [5],−
same,"DS-PG Effect on Adhesion, Migration and Invasion",[1]; [6],−
same,"DS-PG Effect on Adhesion, Migration and Invasion",rat C6 glioma; [3],+
same,"DS-PG Effect on Adhesion, Migration and Invasion",rat C6 glioma; [4],+/−
same,"DS-PG Effect on Adhesion, Migration and Invasion",rat C6 glioma; [5],−
same,"DS-PG Effect on Adhesion, Migration and Invasion",rat C6 glioma; [6],−
same,stability of clear stripes (inhibition of C6 cells),"rat C6 glioma; 0.8 mg/ml DS-PG, followed up to 6 days",≥ 4 days
same,"DS-PG Effect on Adhesion, Migration and Invasion",[2]; [3],+
same,"DS-PG Effect on Adhesion, Migration and Invasion",[2]; [4],+/−
same,"DS-PG Effect on Adhesion, Migration and Invasion",[2]; [5],−
same,"DS-PG Effect on Adhesion, Migration and Invasion",[2]; [6],−
same,Time Dependent Effect of DS-PG on 3T3 Cell Migration,"Murine 3T3 fibroblast; 0.1 mg/ml (1.25 μM), 1d",+
same,Time Dependent Effect of DS-PG on 3T3 Cell Migration,"Murine 3T3 fibroblast; 0.1 mg/ml (1.25 μM), 2d",+
same,Time Dependent Effect of DS-PG on 3T3 Cell Migration,"Murine 3T3 fibroblast; 0.1 mg/ml (1.25 μM), 3d",+
same,Time Dependent Effect of DS-PG on 3T3 Cell Migration,"Murine 3T3 fibroblast; 0.1 mg/ml (1.25 μM), 4d",+
same,Time Dependent Effect of DS-PG on 3T3 Cell Migration,"Murine 3T3 fibroblast; 0.1 mg/ml (1.25 μM), 7d",+
same,"DS-PG Effect on Adhesion, Migration and Invasion",Murine 3T3 fibroblast; [3],+
same,Time Dependent Effect of DS-PG on 3T3 Cell Migration,"Murine 3T3 fibroblast; 0.2 mg/ml (2.5 μM), 1d",+/−
same,Time Dependent Effect of DS-PG on 3T3 Cell Migration,"Murine 3T3 fibroblast; 0.2 mg/ml (2.5 μM), 2d",+/−
same,Time Dependent Effect of DS-PG on 3T3 Cell Migration,"Murine 3T3 fibroblast; 0.2 mg/ml (2.5 μM), 3d",+/−
same,Time Dependent Effect of DS-PG on 3T3 Cell Migration,"Murine 3T3 fibroblast; 0.2 mg/ml (2.5 μM), 4d",+/−
same,Time Dependent Effect of DS-PG on 3T3 Cell Migration,"Murine 3T3 fibroblast; 0.2 mg/ml (2.5 μM), 7d",+
same,"DS-PG Effect on Adhesion, Migration and Invasion",Murine 3T3 fibroblast; [4],+/−
same,Time Dependent Effect of DS-PG on 3T3 Cell Migration,"Murine 3T3 fibroblast; 0.4 mg/ml (5 μM), 1d",−
same,Time Dependent Effect of DS-PG on 3T3 Cell Migration,"Murine 3T3 fibroblast; 0.4 mg/ml (5 μM), 2d",−
same,Time Dependent Effect of DS-PG on 3T3 Cell Migration,"Murine 3T3 fibroblast; 0.4 mg/ml (5 μM), 3d",−
same,Time Dependent Effect of DS-PG on 3T3 Cell Migration,"Murine 3T3 fibroblast; 0.4 mg/ml (5 μM), 4d",−
same,Time Dependent Effect of DS-PG on 3T3 Cell Migration,"Murine 3T3 fibroblast; 0.4 mg/ml (5 μM), 7d",+/−
same,"DS-PG Effect on Adhesion, Migration and Invasion",Murine 3T3 fibroblast; [5],−
same,Time Dependent Effect of DS-PG on 3T3 Cell Migration,"Murine 3T3 fibroblast; 0.8 mg/ml (10 μM), 1d",−
same,Time Dependent Effect of DS-PG on 3T3 Cell Migration,"Murine 3T3 fibroblast; 0.8 mg/ml (10 μM), 2d",−
same,Time Dependent Effect of DS-PG on 3T3 Cell Migration,"Murine 3T3 fibroblast; 0.8 mg/ml (10 μM), 3d",−
same,Time Dependent Effect of DS-PG on 3T3 Cell Migration,"Murine 3T3 fibroblast; 0.8 mg/ml (10 μM), 4d",−
same,Time Dependent Effect of DS-PG on 3T3 Cell Migration,"Murine 3T3 fibroblast; 0.8 mg/ml (10 μM), 7d",+/−
same,"DS-PG Effect on Adhesion, Migration and Invasion",Murine 3T3 fibroblast; [6],−
keratan sulfate/chrondroitin sulfate-proteoglycans [KS/CS-PG],Effect of KS/CS-PG on Cell Migration,rat astrocytes (RAST); 0.12 mg/ml KS/CS-PG + LN stripes,+
same,Effect of KS/CS-PG on Cell Migration,rat astrocytes (RAST); [7],+/−
same,Effect of KS/CS-PG on Cell Migration,rat astrocytes (RAST); [8],+/−
same,Effect of KS/CS-PG on Cell Migration,rat astrocytes (RAST); [9],+/−
same,Effect of KS/CS-PG on Cell Migration,rat astrocytes (RAST); [10],−
same,Effect of KS/CS-PG on Cell Migration,[1]; [7],+
same,Effect of KS/CS-PG on Cell Migration,[1]; [8],+
same,Effect of KS/CS-PG on Cell Migration,[1]; [9],+
same,Effect of KS/CS-PG on Cell Migration,[1]; [10],+/−
same,Effect of KS/CS-PG on Cell Migration,rat C6 glioma; [7],+
same,Effect of KS/CS-PG on Cell Migration,rat C6 glioma; [8],+
same,Effect of KS/CS-PG on Cell Migration,rat C6 glioma; [9],+
same,Effect of KS/CS-PG on Cell Migration,rat C6 glioma; [10],+/−
same,time by which C6 overcame inhibition,"rat C6 glioma; 2.7 mg/ml KS/CS-PG, following plating",≤ 48 h
same,Effect of KS/CS-PG on Cell Migration,[2]; [7],+
same,Effect of KS/CS-PG on Cell Migration,[2]; [8],−
same,Effect of KS/CS-PG on Cell Migration,[2]; [9],−
same,Effect of KS/CS-PG on Cell Migration,[2]; [10],−
same,Effect of KS/CS-PG on Cell Migration,Murine 3T3 fibroblast; [7],+
same,Effect of KS/CS-PG on Cell Migration,Murine 3T3 fibroblast; [8],+/−
same,Effect of KS/CS-PG on Cell Migration,Murine 3T3 fibroblast; [9],+/−
same,Effect of KS/CS-PG on Cell Migration,Murine 3T3 fibroblast; [10],−
